Experiments:
WT zebrafish embryos = assay: Survival of WT zebrafish embryos treated with oleic acid; type: in vivo; details: increasing concentrations
Method: FIG. 11 is a survival curve of WT zebrafish embryos treated with increasing concentrations of oleic acid. Only embryos treated with less than 6 μg/ml oleic acid survived until 6 dpf.

stl mutants = assay: Rescue of ectopic SIV sprouts in stl mutant zebrafish; type: in vivo; details: for excess angiogenesis / ectopic branching phenotype of stl mutants: intravascular supply at 2.5 dpf
Method: (§1) FIG. 6 illustrates quantitation of SW vascular plexus width and ectopic ventral SW sprout number and length. The maximal width of the normal SIV plexus is measured from supraintestinal artery to subintestinal vein (1). The number of ectopic sprouts greater than 1 μm in length projecting ventrally from the subintestinal vein is counted, and the total length of all of these sprouts (2) is measured. […] Scale bar 30 μm.
Cloning of mtp and Rescue of the Mutant Phenotype: The full-length coding sequence of zebrafish mtp was amplified by PCR from WT cDNA and cloned into a pCSDest vector [Villefranc et al., Dev Dyn 236, 3077-3087 (2007)] as further described herein below. mtp mRNA was synthesized with mMessage mMachine kit (Ambion) and injected at a concentration of 232 pg per embryo into the 1 cell stage cytoplasm or into the YSL at dome stage (approximately at 4 hpf).
(§2) Microangiography and Cell Transplants: 10 μM Atorvastatin (Sigma), 1 ug/μl DiI-LDL (Invitrogen), 6 μg/ml C6 in 0.5% BSA Fatty Acid Free (Sigma A8806) and Human Apolipoprotein B-100 (A50220H Meridian Life Science) in 0.5% BSA Fatty Acid Free (Sigma A8806) microangiography was performed at 2.5 dpf as described [Isogai et al., Dev Biol 230, 278-301 (2001)]. HEK293 cells co-transfected with Huh7MTP+apoB34 (see herein below) or un-transfected control cells were transplanted into the perivitelline space of one side of the yolk of 2.5 dpf stl; Tg(fli1:EGFP)^y1 mutant or WT embryos, ventral to the developing SIVs [Nicoll et al., J Cell Mol Med (2008)].
(§3) In Situ Hybridization, Oil Red 0, and Alkaline Phosphatase (AP) Staining: Embryos were fixed overnight in 4% PFA and processed for AP staining [Habeck et al., Curr Biol 12, 1405-1412 (2002)], Oil Red 0 staining [Schlegel et al., Biochemistry 45, 15179-15187 (2006)], or whole-mount in situ hybridization using antisense mRNA probes for vegfr1, vegfr2, vegfr3 and VeCad as described [Pham et al., Dev Biol 303, 772-783 (2007)].
pCS2vegfrlCDS mRNA ([…]) and pCS2mtpCDSmRNA ([…]) were injected at the 1 cell stage or at dome stage, respectively.
(§4) Fatty Acids Feeding of Zebrafish Embryos: Dechorionized 24 hours post fertilization (hpf) embryos were incubated with 6 μg/ml short, intermediate or long chain fatty acid in a solution containing 0.1% BSA Fatty Acid Free (Sigma A8806) for 48 hours. Embryos were then fixed overnight in 4% PFA and processed for AP staining.

apoCII morphants = assay: Fatty acid feeding of apoCII morphants, trunk ISV phenotype; type: in vivo, zebrafish; details: medium supplemented with 6 μg/ml (C6)
Method: as §4

[1] = system: subintestinal vessels (SIVs) of wild type zebrafish; assay: Ectopic subintestinal vessel (SIV) sprouting in wild type zebrafish (AP staining / confocal imaging); type: in vivo; details: for ectopic SIV branching: 3.5 dpf wild type larva treated with 10 μM at 2.5 dpf, vs DMSO
Method: as §1
Zebrafish Husbandry and Injection: Zebrafish were raised by standard methods. The Tg(fli1:EGFP)^y1, Tg(fli1:nEGFP)^y7 [Yaniv et al., Nat Med 12, 711-716 (2006)] and Tg(flt1:YFP)^hu4624 [Hogan et al., Nat Genet 41, 396-398 (2009)] lines were previously derived. MOs and DNA were injected as further described below.
as §2, §3
Microscopy and Imaging: Zebrafish embryos used for imaging or in situ hybridization were treated with 0.00 3% phenylthiourea from 8hpf to inhibit melanin pigment formation. […]

trunk ISVs = assay: Trunk intersegmental vessel (ISV) phenotype of morpholino-injected zebrafish; type: in vivo; details: 3.5 dpf MO-injected zebrafish
Method: Microscopy and Imaging: Zebrafish embryos used for imaging or in situ hybridization were treated with 0.00 3% phenylthiourea from 8hpf to inhibit melanin pigment formation. Confocal imaging was performed using a FVIOOO Olympus imaging system or Zeiss LSM780 upright confocal microscope equipped with ×20 NA 1.0 lens.
Injection of Zebrafish Embryos: The mtp [Schlegel, A. & Stainier, D. Y. Biochemistry 45, 15179-15187 (2006)], apoCII [Pickart, M. A., et al. PLoS One 1, e104 (2006);
MOs (Gene-Tools) were resuspended and injected at concentrations from 5-20 ng/embryo.

[2] = stl mutants injected intravascularly at 2.5 dpf, vs not injected

CCCCCCCC/C=C\CCCCCCCC(=O)O [oleic acid]
oleic acid concentration at which embryos survived until 6 dpf (WT zebrafish embryos): less than 6 μg/ml

CCCCCC(=O)O [scFA]
ectopic vessels phenotype of stl mutants (stl mutants; 3.5 dpf stl mutants, 6 μg/ml fatty acid in embryo medium): did not inhibit the ectopic vessels phenotype | excess angiogenesis / ectopic branching phenotype of stl mutants (stl mutants): did not rescue the ectopic branching phenotype | trunk ISV phenotype of apoCII morphants (apoCII morphants): No phenotypic changes were detected

delipidated form of apoB-100: Human Apolipoprotein B-100 (A50220H Meridian Life Science)
excess angiogenesis / ectopic branching phenotype of stl mutants (stl mutants): efficiently reverted the excess angiogenesis phenotype | average number of ectopic SIV segments (stl mutants; [2]): significantly reduced | average total length of ectopic SIV segments (stl mutants; [2]): significantly reduced

CC(C)c1c(C(=O)Nc2ccccc2)c(-c2ccccc2)c(-c2ccc(F)cc2)n1CC[C@@H](O)C[C@@H](O)CC(=O)O [atorvastatin, Atorvastatin]
ectopic SIV branching [1]: efficiently phenocopied the excess angiogenesis phenotype of stl mutants | ectopic SIV branching ([1]; listed as Atorvastatin): results in ectopic SW branching

vegfr1 MO: vegfr1 ATG blocking morpholino, SEQ ID NO: 1, 5′-ATATCGAACATTCTCTTGGTCTTGC-3′ (all phosphorodiamidate morpholino (PMO))
ectopic SIV sprouts after morpholino injection ([1]; 3.5 dpf Tg(fli-EGFP)y1 zebrafish, MO-injected): ectopic SIV sprouts | trunk ISV phenotype (trunk ISVs): ectopic branching and sprouting
